From PMC12147034, “Identification of alkynyl nicotinamide HSN748 as a RET solvent-front mutant inhibitor with intracranial efficacy” (RSC Medicinal Chemistry, 2025)
Where a chain is given by its changes, count along the chain named. “And” between values parts separate entries of the source, which are not always exact repeats. Equal values may be shown once.

Experiments:
Type in all cases: cell-based
[1] = biological target: T1, B/KR(V804M) cells, KIF5B-RET V804M (Homo sapiens, UniProt P07949+P33176, V804M); assay: Cell viability assay (CellTiter-Glo, 3 days) in B/KR(V804M) cells
T1 construct: FLAG; expressed in transfected cells; host or cells: BaF3
T1 sequence (P07949 713-1063 V804M limits assumed): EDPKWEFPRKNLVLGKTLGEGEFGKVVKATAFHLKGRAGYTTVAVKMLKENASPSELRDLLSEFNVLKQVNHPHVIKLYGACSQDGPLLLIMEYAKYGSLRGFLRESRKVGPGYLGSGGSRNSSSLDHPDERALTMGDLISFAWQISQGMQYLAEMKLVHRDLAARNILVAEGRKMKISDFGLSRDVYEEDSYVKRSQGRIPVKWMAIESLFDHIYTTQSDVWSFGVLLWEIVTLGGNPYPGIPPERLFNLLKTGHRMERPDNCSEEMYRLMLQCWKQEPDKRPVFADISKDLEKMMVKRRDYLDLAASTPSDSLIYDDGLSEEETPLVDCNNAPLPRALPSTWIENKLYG
Procedure: (§1) BaF3 cell lines expressing a flag-tagged KIF5B-RET (B/KR) and the KIF5B-RET containing G810C, G810R, G810S, V804M, V804L mutations were as reported.[8,13,17,21–23] […] Infected cells were cultured for two weeks, and cells with high GFP intensity were sorted into a 96-well plate (1 cell/well). After the expansion of growing cell lines, they were screened for a high level of luciferase activity by luminescence imaging after exposure to D-luciferin. IMR-90 cells were from ATCC.
(§2) The TEL-VEGFR2 cDNA was then subcloned into pLentP lentiviral vector.[21] and BaF3/TEL-VEGFR2 (B/TV) cells were generated by infecting BaF3 cells with the lentiviral TEL-VEGFR2 as described. Cell viability assay was performed using CellTiter-Glo reagent (G7573, Promega, Madison, WI, USA) after 3 days of drug treatment as described for BaF3-derived cells and 5 days for IMR-90 cells.

[2] = biological target: T2, B/KR(V804L) cells, KIF5B-RET V804L (Homo sapiens, UniProt P07949+P33176, V804L); assay: Cell viability assay (CellTiter-Glo, 3 days) in B/KR(V804L) cells
T2 construct: FLAG; expressed in transfected cells; host or cells: BaF3
T2 sequence (P07949 713-1063 V804L limits assumed): T1 sequence (P07949 713-1063 V804M limits assumed) with M92L
Procedure: as §1, §2

[3] = biological target: T3, BaF3/KIF5B-RET (B/KR) cells, RET WT (Homo sapiens, UniProt P07949+P33176); assay: Cell viability assay (CellTiter-Glo, 3 days) in B/KR cells
T3 construct: FLAG; expressed in transfected cells; host or cells: BaF3
T3 sequence (P33176+P07949 with tags, fused parts or gaps): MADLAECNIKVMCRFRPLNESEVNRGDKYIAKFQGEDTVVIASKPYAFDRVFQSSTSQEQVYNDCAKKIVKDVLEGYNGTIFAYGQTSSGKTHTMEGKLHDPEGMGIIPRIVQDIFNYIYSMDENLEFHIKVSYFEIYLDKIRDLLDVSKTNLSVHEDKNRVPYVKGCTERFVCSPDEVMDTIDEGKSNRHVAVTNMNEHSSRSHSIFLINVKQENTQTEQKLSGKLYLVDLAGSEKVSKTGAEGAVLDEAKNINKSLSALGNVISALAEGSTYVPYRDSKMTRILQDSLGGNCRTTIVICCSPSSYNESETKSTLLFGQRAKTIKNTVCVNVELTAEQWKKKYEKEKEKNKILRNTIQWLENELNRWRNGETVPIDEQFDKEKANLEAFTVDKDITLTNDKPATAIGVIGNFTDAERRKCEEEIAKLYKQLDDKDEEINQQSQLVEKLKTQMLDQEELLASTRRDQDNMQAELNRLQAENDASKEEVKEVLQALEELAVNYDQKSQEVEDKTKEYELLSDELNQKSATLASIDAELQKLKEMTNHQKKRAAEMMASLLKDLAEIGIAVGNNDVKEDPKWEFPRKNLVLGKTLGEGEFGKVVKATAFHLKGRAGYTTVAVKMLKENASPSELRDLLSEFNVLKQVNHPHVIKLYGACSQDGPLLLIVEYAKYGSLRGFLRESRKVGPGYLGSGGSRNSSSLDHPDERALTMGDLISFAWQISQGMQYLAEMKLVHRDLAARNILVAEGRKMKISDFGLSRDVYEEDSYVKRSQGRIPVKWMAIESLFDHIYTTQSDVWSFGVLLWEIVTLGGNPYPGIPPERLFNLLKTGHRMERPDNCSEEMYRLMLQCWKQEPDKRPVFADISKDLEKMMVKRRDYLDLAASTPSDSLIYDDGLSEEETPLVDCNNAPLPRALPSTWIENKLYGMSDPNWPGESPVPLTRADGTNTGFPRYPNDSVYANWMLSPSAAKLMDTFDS
Procedure: as §1, §2

[4] = biological target: T4, BaF3/TEL-VEGFR2 (B/TV) cells (Homo sapiens, UniProt P35968+P41212); assay: Cell viability assay (CellTiter-Glo, 3 days) in B/TV cells; details: TEL-VEGFR2-dependent BaF3 cells, 3 days; read-out: IC50 B/TV WT
T4 construct: fused to VEGFR2 (KDR) amino acids 807–1356; TEL (ETV6) amino acids 1–336 (N-terminal fusion partner); FLAG; expressed in transfected cells; host or cells: BaF3 (lentiviral pLentP TEL-VEGFR2)
Procedure: as §2

[5] = tested on: BaF3/TEL-VEGFR2 (B/TV) cells; assay: as above; details: ratio of B/TV IC50 to B/KR WT IC50
Procedure: as §2

[6] = biological target: T5, B/KR(G810C) cells, KIF5B-RET G810C (Homo sapiens, UniProt P07949+P33176, G810C); assay: Cell viability assay (CellTiter-Glo, 3 days) in B/KR(G810C) cells
T5 construct: FLAG; expressed in transfected cells; host or cells: BaF3
T5 sequence (P07949 713-1063 G810C limits assumed): T1 sequence (P07949 713-1063 V804M limits assumed) with M92V, G98C
Procedure: as §1, §2

T4 sequence (P41212+P35968 fused): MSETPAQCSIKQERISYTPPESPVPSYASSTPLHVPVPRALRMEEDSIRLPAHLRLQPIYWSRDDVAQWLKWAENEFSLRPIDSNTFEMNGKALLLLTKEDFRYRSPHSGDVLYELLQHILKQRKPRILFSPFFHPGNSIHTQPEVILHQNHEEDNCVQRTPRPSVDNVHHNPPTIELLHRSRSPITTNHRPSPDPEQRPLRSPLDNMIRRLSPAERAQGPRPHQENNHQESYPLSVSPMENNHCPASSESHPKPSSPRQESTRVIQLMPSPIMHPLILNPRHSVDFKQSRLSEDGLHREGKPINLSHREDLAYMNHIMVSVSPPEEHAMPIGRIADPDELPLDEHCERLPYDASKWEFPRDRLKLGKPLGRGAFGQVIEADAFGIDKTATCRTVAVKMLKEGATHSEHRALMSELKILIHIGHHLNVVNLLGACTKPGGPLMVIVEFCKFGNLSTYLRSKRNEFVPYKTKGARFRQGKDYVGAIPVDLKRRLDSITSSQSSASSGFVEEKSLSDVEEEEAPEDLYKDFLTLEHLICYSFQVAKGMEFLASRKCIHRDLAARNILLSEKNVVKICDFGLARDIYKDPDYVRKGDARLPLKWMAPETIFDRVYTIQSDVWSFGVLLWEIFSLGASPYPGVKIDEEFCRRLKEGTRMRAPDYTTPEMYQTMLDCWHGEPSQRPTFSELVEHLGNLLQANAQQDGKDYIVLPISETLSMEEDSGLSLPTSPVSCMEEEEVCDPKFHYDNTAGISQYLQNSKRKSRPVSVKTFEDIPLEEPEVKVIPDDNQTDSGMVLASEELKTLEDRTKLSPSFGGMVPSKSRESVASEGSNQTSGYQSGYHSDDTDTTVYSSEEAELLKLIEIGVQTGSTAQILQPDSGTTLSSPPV

Row | SMILES | IC50 [1] | IC50 [2] | IC50 [3] [nM] | IC50 [4] [nM] | VEGFR2/RET (fold) [5] [fold] | IC50 [6] [nM]
1 | CCOc1ccc2ncc(C#Cc3cncc(C(=O)Nc4ccc(CN5CCN(C)CC5)c(C(F)(F)F)c4)c3)n2n1 [HSND14, 5-((6-Ethoxyimidazo[1,2-b]pyridazin-3-yl)ethynyl)-N-(4-((4-methylpiperazin-1-yl)methyl)-3-(trifluoromethyl)phenyl)nicotinamide] | 20 ± 0.89 nM | 30 ± 1.2 nM | 4.02 ± 0.19 | 6.88 ± 0.15 | 1.71 | 15.9 ± 0.72
2 | Cc1n[nH]c2ncc(C#Cc3cncc(C(=O)Nc4ccc(CN5CCN(C)CC5)c(C(F)(F)F)c4)c3)cc12 [HSND19, 5-((3-Methyl-1H-pyrazolo[3,4-b]pyridin-5-yl)ethynyl)-N-(4-((4-methylpiperazin-1-yl)methyl)-3-(trifluoromethyl)phenyl)nicotinamide] | 6.52 ± 0.45 nM | 20.6 ± 2.22 nM | 1.95 ± 0.12 | 5.56 ± 1.11 | 2.85 | 9.08 ± 1.63
3 | CN1CCN(Cc2ccc(NC(=O)c3cncc(C#Cc4cnc5cccnn45)c3)cc2C(F)(F)F)CC1 [HSN748] | 88 nM and 88.2 nM | 55 nM and 55.7 nM | 4.05 ± 0.18 | 7.34 ± 0.09 | 1.81 | 7.93 ± 0.33
